Reference: patent publication US11478478B2, “2,3-disubstituted 1-acyl-4-amino-1,2,3,4-tetrahydroquinoline derivatives and their use as bromodomain inhibitors” (GLAXOSMITHKLINE INTELLECTUAL PROPERTY (NO.2) LIMITED, priority 2013, dated 2022)
Where a name gives a salt, the structure may show the parent alone.

Target: T1, BRD4 BD2 (Homo sapiens, UniProt O60885, Y97A)
T1 construct: BRD4 (1-477) (Y97A) and (Y390A); made in house; host or cells: E. coli (pET15b vector)
Assay: TR-FRET binding assay, BRD4 BD2 (BD1-mutated protein)
Settings: read-out: pIC50 in the BRD4 BD2 assay (converted)
Description: Time Resolved Fluorescence Resonance Energy Transfer (TR-FRET) Assay Binding was assessed using a time resolved fluorescent resonance energy transfer binding assay. This utilises a 6 His purification tag at the N-terminal of the proteins as an epitope for an anti-6 His antibody labeled with Europium chelate (PerkinElmer AD0111) allowing binding of the Europium to the proteins which acts as the donor fluorophore. A small molecule, high affinity binder of the bromodomains BRD2, BRD3, BRD4 and BRDT has been labeled with Alexa Fluor647 (Reference Compound X) and this acts as the acceptor in the FRET pair.
In the absence of a competing compound, excitation of the Europium causes the donor to emit at λ618 nm which excites the Alexa labelled bromodomain binding compound leading to an increased energy transfer that is measurable at λ647 nM. In the presence of a sufficient concentration of a compound that can bind these proteins, the interaction is disrupted leading to a quantifiable drop in fluorescent resonance energy transfer.
The binding of the compounds of formula (I) to Bromodomains BRD2, BRD3, BRD4 and BRDT was assessed using mutated proteins to detect differential binding to either Binding Domain 1 (BD1) or Binding Domain 2 (BD2) on the bromodomain. These single residue mutations in the acetyl lysine binding pocket greatly lower the affinity of the fluoroligand (Reference Compound X) for the mutated domain (>1000 fold selective for the non-mutated domain). Therefore in the final assay conditions, binding of the fluoroligand to the mutated domain cannot be detected and subsequently the assay is suitable to determine the binding of compounds to the single non-mutated bromodomain.
Recombinant Human Bromodomains [(BRD2 (1-473) (Y113A) and (Y386A), BRD3 (1-435) (Y73A) and (Y348A) BRD4 (1-477) (Y97A) and (Y390A) and BRDT (1-397) (Y66A) and (Y309A)] were expressed in E. coli cells (in pET15b vector for BRD2/3/4 and in pET28a vector for BRDT) with a 6-His tag at the N-terminal. The His-tagged Bromodomain pellet was resuspended in 50 mM HEPES (pH7.5), 300 mM NaCl, 10 mM imidazole & 1 μl/ml protease inhibitor cocktail and extracted from the E. coli cells using sonication and purified using a nickel sepharose high performance column, the proteins were washed and then eluted with a linear gradient of 0-500 mM imidazole with buffer 50 mM HEPES (pH7.5), 150 mM NaCl, 500 mM imidazole, over 20 column volumes. Final purification was completed by Superdex 200 prep grade size exclusion column. Purified protein was stored at −80° C. in 20 mM HEPES pH 7.5 and 100 mM NaCl. Protein identity was confirmed by peptide mass fingerprinting and predicted molecular weight confirmed by mass spectrometry.
All assay components were dissolved in buffer composition of 50 mM HEPES pH7.4, 50 mM NaCl, 5% Glycerol, 1 mM DTT and 1 mM CHAPS. The final concentration of bromodomain proteins were 10 nM and the Alexa Fluor647 ligand was at Kd. These components were premixed and 5 μl of this reaction mixture was added to all wells containing 50 nl of various concentrations of test compound or DMSO vehicle (0.5% DMSO final) in Greiner 384 well black low volume microtitre plates and incubated in dark for 30 minutes at rt. 5 μl of detection mixture containing 1.5 nM final concentration anti-6His Europium chelate was added to all wells and a further dark incubation of at least 30 minutes was performed. Plates were then read on the Envision platereader, (λex=317 nm, donor λem=615 nm; acceptor λem=665 nm; Dichroic LANCE dual). Time resolved fluorescent intensity measurements were made at both emission wavelengths and the ratio of acceptor/donor was calculated and used for data analysis. All data was normalized to the mean of 16 high (inhibitor control—Example 11 of WO 2011/054846A1) and 16 low (DMSO) control wells on each plate. A four parameter curve fit of the following form was then applied: y=a+((b−a)/(1+(10^/10^)^d) […]

First: CC(=O)N1c2ccccc2[C@H](Nc2ccsc2)[C@@H](C)[C@@H]1C (racemic) [Example 12, rac-1-((2S,3R,4R)-2,3-dimethyl-4-(thiophen-3-ylamino)-3,4-dihydroquinolin-1(2H)-yl)ethanone]
Second: CC(=O)N1c2ccccc2[C@H](Nc2ccnc(C)c2)[C@@H](C)[C@@H]1C (racemic) [Example 23, rac-1-((2S,3R,4R)-2,3-dimethyl-4-((2-methylpyridin-4-yl)amino)-3,4-dihydroquinolin-1(2H)-yl)ethanone]
The IC50 of the first is lower: 100 nM for the first, 1000 to 100000 nM for the second.

`CC(=O)N1c2ccccc2[C@H](Nc2ccc(Cl)cc2)[C@@H](C)[C@@H]1C` (racemic) [Example 13, rac-1-((2S,3R,4R)-4-((4-chlorophenyl)amino)-2,3-dimethyl-3,4-dihydroquinolin-1(2H)-yl)ethanone] and `CC(=O)N1c2ccccc2[C@H](Nc2ccc(C)cc2)[C@@H](C)[C@@H]1C` (racemic) [Example 20, rac-1-((2S,3R,4R)-2,3-dimethyl-4-(p-tolylamino)-3,4-dihydroquinolin-1(2H)-yl)ethanone] are the same in IC50: 100 nM for the first, 100 nM for the second.

`COc1ccc(N[C@H]2c3ccccc3N(C(C)=O)[C@@H](C)[C@@H]2C)cc1` (racemic) [Example 15, rac-1-((2S,3R,4R)-4-((4-methoxyphenyl)amino)-2,3-dimethyl-3,4-dihydroquinolin-1(2H)-yl)ethanone] and `CC(=O)N1c2ccccc2[C@H](Nc2cccc(C)c2)[C@@H](C)[C@@H]1C` (racemic) [Example 16, rac-1-((2S,3R,4R)-2,3-dimethyl-4-(m-tolylamino)-3,4-dihydroquinolin-1(2H)-yl)ethanone] are the same in IC50: 100 nM for the first, 100 nM for the second.

Compared with `CC(=O)N1c2ccccc2[C@H](Nc2cncc(Cl)c2)[C@@H](C)[C@@H]1C` (racemic) [Example 22, rac-1-((2S,3R,4R)-4-((5-chloropyridin-3-yl)amino)-2,3-dimethyl-3,4-dihydroquinolin-1(2H)-yl)ethanone], `CC(=O)N1c2ccccc2[C@H](Nc2cncc(C)n2)[C@@H](C)[C@@H]1C1CC1` (racemic) [Example 48, rac-1-((2S,3R,4R)-2-cyclopropyl-3-methyl-4-((6-methylpyrazin-2-yl)amino)-3,4-dihydroquinolin-1(2H)-yl)ethanone] is higher in IC50: 100 nM for the first, 1000 to 100000 nM for the second.

`CC(=O)N1c2ccccc2[C@H](Nc2ccc(C#N)cc2)[C@@H](C)[C@@H]1C1CC1` (racemic) [Example 30, rac-4-(((2S,3R,4R)-1-Acetyl-2-cyclopropyl-3-methyl-1,2,3,4-tetrahydroquinolin-4-yl)amino)benzonitrile] and `CC(=O)N1c2ccccc2[C@H](Nc2ccc(F)cc2)[C@@H](C)[C@@H]1C1CC1` (racemic) [Example 32, rac-1-((2S,3R,4R)-2-Cyclopropyl-4-((4-fluorophenyl)amino)-3-methyl-3,4-dihydroquinolin-1(2H)-yl)ethanone] are the same in IC50: 100 nM for the first, 100 nM for the second.

`CC(=O)N1c2ccccc2[C@H](Nc2ncccc2O)[C@@H](C)[C@@H]1C1CC1` (racemic) [Example 49, rac-1-((2S,3R,4R)-2-cyclopropyyl-4-((3-hydroxypyridin-2-yl)amino)-3-methyl-3,4-dihydroquinolin-1(2H)-yl)ethanone] and `CC(=O)N1c2ccccc2[C@H](Nc2cccc(C#N)n2)[C@@H](C)[C@@H]1C1CC1` (racemic) [Example 50, rac-6-(((2S,3R,4R)-1-acetyl-2-cyclopropyl-3-methyl-1,2,3,4-tetrahydroquinolin-4-yl)amino)picolinonitrile] fall in the same range of IC50: 1000 to 100000 nM for the first, 1000 to 100000 nM for the second.

`CC(=O)N1c2ccccc2[C@H](Nc2ccccc2)[C@@H](C)[C@@H]1CC(F)(F)F` (racemic) [Example 53, rac-1-((2S,3R,4R)-3-methyl-4-(phenylamino)-2-(2,2,2-trifluoroethyl)-3,4-dihydroquinolin-1(2H)-yl)ethanone] and `COC[C@H]1[C@H](C)[C@@H](Nc2ccccc2)c2ccccc2N1C(C)=O` (racemic) [Example 54, rac-1-((2R,3R,4R)-2-(methoxymethyl)-3-methyl-4-(phenylamino)-3,4-dihydroquinolin-1(2H)-yl)ethanone] fall in the same range of IC50: 1000 to 100000 nM for the first, 1000 to 100000 nM for the second.

`CC[C@H]1[C@H](C)[C@@H](Nc2ccc(C#N)cc2)c2cc(F)ccc2N1C(C)=O` (racemic) [Example 62, rac-4-(((2S,3R,4R)-1-acetyl-2-ethyl-6-fluoro-3-methyl-1,2,3,4-tetrahydroquinolin-4-yl)amino)benzonitrile] and `CC(=O)N1c2ccc(N3CCNCC3)cc2[C@H](Nc2ccccc2)[C@@H](C)[C@@H]1C` (racemic) [Example 69, rac-1-((2S,3R,4R)-2,3-dimethyl-4-(phenylamino)-6-(piperazin-1-yl)-3,4-dihydroquinolin-1(2H)-yl)ethanone] are the same in IC50: 100 nM for the first, 100 nM for the second.

`CC(=O)N1c2cc(O)ccc2[C@H](Nc2cccc(C)n2)[C@@H](C)[C@@H]1C1CC1` (racemic) [Example 65, rac-1-((2S,3R,4R)-2-cyclopropyl-7-hydroxy-3-methyl-4-((6-methylpyridin-2-yl)amino)-3,4-dihydroquinolin-1(2H)-yl)ethanone] and `CC(=O)N1c2ccc(S(C)(=O)=O)cc2[C@H](Nc2cccc(C)n2)[C@@H](C)[C@@H]1C1CC1` (racemic) [Example 67, rac-1-((2S,3R,4R)-2-cyclopropyl-3-methyl-4-((6-methylpyridin-2-yl)amino)-6-(methylsulfonyl)-3,4-dihydroquinolin-1(2H)-yl)ethanone] fall in the same range of IC50: 1000 to 100000 nM for the first, 1000 to 100000 nM for the second.

Compared with `CC(=O)N1c2ccc(S(=O)(=O)C(C)C)cc2[C@H](Nc2cccc(C)n2)[C@@H](C)[C@@H]1C1CC1` (racemic) [Example 68, rac-1-((2S,3R,4R)-2-cyclopropyl-6-(isopropylsulfonyl)-3-methyl-4-((6-methylpyridin-2-yl)amino)-3,4-dihydroquinolin-1(2H)-yl)ethanone], `CC(=O)N1c2ccc(N3CCC(C)C3)cc2[C@H](Nc2ccccc2)[C@@H](C)[C@@H]1C` (mixture of isomers) [Example 80, 1-((rac-2S,3R,4R)-2,3-dimethyl-6-(3-methylpyrrolidin-1-yl)-4-(phenylamino)-3,4-dihydroquinolin-1(2H)-yl)ethanone] is lower in IC50: 1000 to 100000 nM for the first, 100 nM for the second.

`CC(=O)N1c2ccc(N3CCOCC3)cc2[C@H](Nc2ccccc2)[C@@H](C)[C@@H]1C` (racemic) [Example 70, rac-1-((2S,3R,4R)-2,3-dimethyl-6-morpholino-4-(phenylamino)-3,4-dihydroquinolin-1(2H)-yl)ethanone] and `CC(=O)N1c2ccc(N3CCC(N)CC3)cc2[C@H](Nc2ccccc2)[C@@H](C)[C@@H]1C` (racemic) [Example 74, rac-1-((2S,3R,4R)-6-(4-aminopiperidin-1-yl)-2,3-dimethyl-4-(phenylamino)-3,4-dihydroquinolin-1(2H)-yl)ethanone, hydrochloride] are the same in IC50: 100 nM for the first, 100 nM for the second.

`CC(=O)N1c2ccc(N3CCNC(C)C3)cc2[C@H](Nc2ccccc2)[C@@H](C)[C@@H]1C` (mixture of isomers) [Example 72, 1-((rac-2S,3R,4R)-2,3-dimethyl-6-(3-methylpiperazin-1-yl)-4-(phenylamino)-3,4-dihydroquinolin-1(2H)-yl)ethanone, formate salt] and `CC(=O)N1c2ccc(N3CCOC(C)C3)cc2[C@H](Nc2ccccc2)[C@@H](C)[C@@H]1C` (mixture of isomers) [Example 77, 1-((rac-2S,3R,4R)-2,3-dimethyl-6-(2-methylmorpholino)-4-(phenylamino)-3,4-dihydroquinolin-1(2H)-yl)ethanone] are the same in IC50: 100 nM for the first, 100 nM for the second.
